# Experimental data published in patent publication US9440978B2, “Imidazolo-, oxazolo-, and thiazolopyrimidine modulators of TRPV1” (Janssen Pharmaceutica NV, priority 2007, dated 2016).
# Structures can show the parent of a compound that is named as a salt.
# Assays:
# rat TRPV1 = target: T1, rat TRPV1 (Rattus norvegicus, UniProt O35433); experiment: Block of capsaicin-induced Ca2+ influx, rat assay (rTRPV1/HEK293, FLIPR); type: cell-based; settings: HEK293 cells transfected with rat TRPV1; capsaicin challenge; mean; > value = solubility limit in assay medium; read-out: Rat IC50
# T1 construct: expressed in transfected cells; host or cells: HEK293
# Outline: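 HEK293 cells expressing rat TRPV1, Fluo-3 loaded, preincubated 30 min with compound in 20 μM Ca2+ buffer (serial three-fold dilutions, usually from 10 μM, duplicate). Capsaicin-evoked fluorescence change over 100 s measured on FLIPR; IC50 by non-linear regression, averaged across runs.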
# human TRPV1 = target: T2, human TRPV1 (Homo sapiens, UniProt Q8NER1); experiment: Block of capsaicin-induced Ca2+ influx, human assay (hTRPV1/HEK293, FLIPR); type: cell-based; settings: HEK293 cells transfected with human TRPV1; 150 nM capsaicin challenge; mean; > value = solubility limit in assay medium
# T2 construct: expressed in transfected cells; host or cells: HEK293
# T2 sequence (Q8NER1 whole entry): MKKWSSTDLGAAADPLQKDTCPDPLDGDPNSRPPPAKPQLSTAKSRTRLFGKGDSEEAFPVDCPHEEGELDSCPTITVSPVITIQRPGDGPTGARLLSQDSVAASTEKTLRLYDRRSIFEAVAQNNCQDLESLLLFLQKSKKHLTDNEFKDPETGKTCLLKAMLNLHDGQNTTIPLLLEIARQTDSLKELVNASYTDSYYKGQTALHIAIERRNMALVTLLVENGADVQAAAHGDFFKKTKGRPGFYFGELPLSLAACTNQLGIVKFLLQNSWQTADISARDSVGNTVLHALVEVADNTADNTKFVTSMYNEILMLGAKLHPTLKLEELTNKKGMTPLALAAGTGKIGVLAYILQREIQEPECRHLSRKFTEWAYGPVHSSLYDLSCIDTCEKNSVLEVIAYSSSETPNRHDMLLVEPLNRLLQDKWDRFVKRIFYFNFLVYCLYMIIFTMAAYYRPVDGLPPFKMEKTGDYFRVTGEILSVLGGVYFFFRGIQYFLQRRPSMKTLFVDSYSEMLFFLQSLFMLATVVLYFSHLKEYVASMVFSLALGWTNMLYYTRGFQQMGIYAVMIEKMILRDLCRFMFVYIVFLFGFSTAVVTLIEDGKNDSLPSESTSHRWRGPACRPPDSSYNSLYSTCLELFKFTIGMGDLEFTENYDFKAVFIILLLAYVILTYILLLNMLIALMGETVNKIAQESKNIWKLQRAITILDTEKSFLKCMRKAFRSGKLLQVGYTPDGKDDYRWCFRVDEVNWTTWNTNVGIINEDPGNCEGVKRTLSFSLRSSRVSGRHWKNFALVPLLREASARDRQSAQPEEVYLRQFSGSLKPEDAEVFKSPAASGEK
# T1 sequence (O35433 whole entry): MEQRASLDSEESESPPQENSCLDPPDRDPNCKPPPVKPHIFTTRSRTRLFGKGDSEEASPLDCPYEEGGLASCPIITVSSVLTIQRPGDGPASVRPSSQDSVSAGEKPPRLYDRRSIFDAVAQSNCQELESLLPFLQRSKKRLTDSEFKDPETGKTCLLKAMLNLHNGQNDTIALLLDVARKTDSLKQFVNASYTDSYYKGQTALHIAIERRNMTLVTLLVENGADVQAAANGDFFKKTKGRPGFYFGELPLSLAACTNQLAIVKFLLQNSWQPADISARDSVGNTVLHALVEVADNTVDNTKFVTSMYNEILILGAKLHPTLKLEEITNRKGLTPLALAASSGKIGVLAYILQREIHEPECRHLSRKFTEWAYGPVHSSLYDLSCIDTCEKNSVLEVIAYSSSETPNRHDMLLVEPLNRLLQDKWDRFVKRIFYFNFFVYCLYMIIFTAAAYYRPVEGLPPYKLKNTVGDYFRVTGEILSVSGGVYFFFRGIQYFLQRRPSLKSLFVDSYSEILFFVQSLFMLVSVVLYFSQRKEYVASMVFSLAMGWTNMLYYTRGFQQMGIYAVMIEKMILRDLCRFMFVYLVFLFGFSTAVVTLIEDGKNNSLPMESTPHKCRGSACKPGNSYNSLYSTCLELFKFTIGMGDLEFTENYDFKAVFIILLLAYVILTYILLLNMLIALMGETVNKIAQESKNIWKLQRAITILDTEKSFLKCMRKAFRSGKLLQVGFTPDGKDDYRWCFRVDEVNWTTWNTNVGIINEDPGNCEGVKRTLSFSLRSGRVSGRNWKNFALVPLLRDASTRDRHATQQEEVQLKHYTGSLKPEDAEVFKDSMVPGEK
SMILES,IC50 (rat TRPV1) [µM],IC50 (human TRPV1) [µM]
"FC(F)(F)c1ccc(Nc2ncnc3sc(Cc4ccccc4Cl)nc23)cn1 [Example 21, 2-(2-Chlorobenzyl)-N-[6-(trifluoromethyl)pyridin-3-yl][1,3]thiazolo[5,4-d]pyrimidin-7-amine]",0.054,0.079
"FC(F)(F)c1ccc(Nc2ncnc3sc(Cc4ccccc4)nc23)cn1 [Example 33, 2-Benzyl-N-[6-(trifluoromethyl)pyridin-3-yl][1,3]thiazolo[5,4-d]pyrimidin-7-amine]",0.111,0.813
"Cc1cccc(C)c1Cc1nc2c(Nc3ccc(C(C)(C)C)cc3)ncnc2s1 [Example 57, N-(4-tert-Butylphenyl)-2-(2,6-dimethylbenzyl)[1,3]thiazolo[5,4-d]pyrimidin-7-amine]",0.051,0.252
"FC(F)(F)c1ccc(Nc2nc(NCc3cccnc3)nc3sc(Cc4c(Cl)cccc4Cl)nc23)cc1 [Example 85, 2-(2,6-Dichloro-benzyl)-N^5-pyridin-3-ylmethyl-N^7-(4-trifluoromethyl-phenyl)-thiazolo[5,4-d]pyrimidine-5,7-diamine trifluoroacetic acid salt]",0.112,0.433
"FC(F)(F)c1ccc(Nc2ncnc3sc(Cc4c(Cl)cccc4Cl)nc23)cc1 [Example 3, [2-(2,6-Dichloro-benzyl)-thiazolo[5,4-d]pyrimidin-7-yl]-(4-trifluoromethyl-phenyl)-amine]",0.03,0.048
"COc1nc(Nc2ccc(C(F)(F)F)cc2)c2nc(Cc3c(Cl)cccc3Cl)sc2n1 [Example 101, [2-(2,6-Dichloro-benzyl)-5-methoxy-thiazolo[5,4-d]pyrimidin-7-yl]-(4-trifluoromethyl-phenyl)-amine]",0.034,0.207
"FC(F)(F)c1ccc(Nc2nc(N3CCOCC3)nc3sc(Cc4c(Cl)cccc4Cl)nc23)cc1 [Example 63, [2-(2,6-Dichloro-benzyl)-5-morpholin-4-yl-thiazolo[5,4-d]pyrimidin-7-yl]-(4-trifluoromethyl-phenyl)-amine]",3.56,> 6.67
"CC(C)(C#N)c1ccc(Nc2ncnc3sc(Cc4c(Cl)cccc4Cl)nc23)cc1 [Example 42, 2-(4-{[2-(2,6-Dichlorobenzyl)[1,3]thiazolo[5,4-d]pyrimidin-7-yl]amino}phenyl)-2-methylpropanenitrile]",0.056,0.099
"FC(F)(F)Oc1ccc(Nc2ncnc3sc(Cc4c(Cl)cccc4Cl)nc23)cc1 [Example 44, 2-(2,6-Dichlorobenzyl)-N-[4-(trifluoromethoxy)phenyl][1,3]thiazolo[5,4-d]pyrimidin-7-amine]",0.044,0.193
"FC(F)(F)c1ccc(Nc2nc(NCC3CCCNC3)nc3sc(Cc4c(Cl)cccc4Cl)nc23)cc1 (stereo not drawn) [Example 91, 2-(2,6-Dichlorobenzyl)-N^5-(piperidin-3-ylmethyl)-N^7-[4-(trifluoromethyl)phenyl][1,3]thiazolo[5,4-d]pyrimidine-5,7-diamine hydrochloride salt]",3.16,4.05
"FC(F)(F)c1ccc(Nc2nc(NCC3CCCCN3)nc3sc(Cc4c(Cl)cccc4Cl)nc23)cc1 (stereo not drawn) [Example 90, 2-(2,6-Dichlorobenzyl)-N^5-(piperidin-2-ylmethyl)-N^7-[4-(trifluoromethyl)phenyl][1,3]thiazolo[5,4-d]pyrimidine-5,7-diamine hydrochloride salt]",9.71,6.05
"Cc1cccc(C)c1Cc1nc2c(Nc3ccccc3)ncnc2s1 [Example 55, 2-(2,6-Dimethylbenzyl)-N-phenyl[1,3]thiazolo[5,4-d]pyrimidin-7-amine]",2.86,3.44
"FC(F)(F)c1ccc(Nc2nc(N3CCC(N4CCCC4)CC3)nc3sc(Cc4c(Cl)cccc4Cl)nc23)cc1 [Example 77, [2-(2,6-Dichloro-benzyl)-5-(4-pyrrolidin-1-yl-piperidin-1-yl)-thiazolo[5,4-d]pyrimidin-7-yl]-(4-trifluoromethyl-phenyl)-amine trifluoroacetic acid salt]",4.34,1.12
"FC(F)(F)c1ccc(Nc2ncnc3sc(Cc4ccc(Cl)cc4)nc23)cn1 [Example 36, 2-(4-Chlorobenzyl)-N-[6-(trifluoromethyl)pyridin-3-yl][1,3]thiazolo[5,4-d]pyrimidin-7-amine]",0.08,2.3
"CC(C)CN1CCN(c2nc(Nc3ccc(C(F)(F)F)cc3)c3nc(Cc4c(Cl)cccc4Cl)sc3n2)CC1 [Example 83, [2-(2,6-Dichloro-benzyl)-5-(4-isobutyl-piperazin-1-yl)-thiazolo[5,4-d]pyrimidin-7-yl]-(4-trifluoromethyl-phenyl)-amine trifluoroacetic acid salt]",0.012,0.136
"FC(F)(F)c1ccccc1Cc1nc2c(Nc3ccc(Br)cc3)ncnc2s1 [Example 49, N-(4-Bromophenyl)-2-[2-(trifluoromethyl)benzyl][1,3]thiazolo[5,4-d]pyrimidin-7-amine]",0.016,0.059
O=S(=O)(c1ccc(Nc2ncnc3sc(Cc4c(Cl)cccc4Cl)nc23)cc1)C(F)(F)F [Example 14],0.068,0.034
"CS(=O)(=O)c1ccc(Nc2ncnc3sc(Cc4ccccc4)nc23)cc1 [Example 34, 2-Benzyl-N-[4-(methylsulfonyl)phenyl][1,3]thiazolo[5,4-d]pyrimidin-7-amine]",1.46,3.31
